Assay [1] concerns Rattus norvegicus. Nature of the assay: Antidiabetic activity in Sprague-Dawley Rattus norvegicus (rat) STZ-induced diabetic model assessed as decrease in oral glucose-induced plasma glucose level at 5% administered QD for 6 weeks prior to glucose-challenge measured after 120 min by oral glucose tolerence test relative to control. The class given is functional, organism-based.

Assay [2] has as its system Rattus norvegicus. Nature of the assay: Antidiabetic activity in Sprague-Dawley Rattus norvegicus (rat) assessed as STZ-induced fasting plasma triglyceride level at 5% administered QD for 12 weeks (reference value: 54.4 +/- 12.3 […]). It is filed as functional.
In assay [3] the test system is Rattus norvegicus. The assay can be described thus: Antidiabetic activity in Sprague-Dawley Rattus norvegicus (rat) assessed as STZ-induced fasting plasma free fatty acid level at 5% administered QD for 12 weeks (reference value: 230.8 +/- 16.6 uM). The class given is functional.
In assay [4] the test system is Rattus norvegicus. Nature of the assay: Antidiabetic activity in Sprague-Dawley Rattus norvegicus (rat) assessed as STZ-induced fasting plasma insulin level at 5% administered QD for 12 weeks (reference value: 13.5 +/- 1.6 uU/ml). It is filed as functional.
Assay [5] concerns Rattus norvegicus. Nature of the assay: Antidiabetic activity in Sprague-Dawley Rattus norvegicus (rat) assessed as STZ-induced fasting plasma glucose level at 5% administered QD for 12 weeks (reference value: 318.4 +/- 11.9 mg/dl). It is filed as functional.
In assay [6] the test system is Rattus norvegicus. The assay can be described thus: Antidiabetic activity in Sprague-Dawley Rattus norvegicus (rat) assessed as STZ-induced body weight at 5% administered QD for 12 weeks (reference value: 268.6 +/- 9.3 g). It is filed as functional.
For assay [7], the system named is Rattus norvegicus. The assay can be described thus: Antidiabetic activity in Sprague-Dawley Rattus norvegicus (rat) STZ-induced diabetic model assessed as decrease in oral glucose-induced plasma insulin level at 5% administered QD for 12 weeks prior to glucose-challenge measured after 120 min by oral glucose tolerance test relative to control. The class given is functional, organism-based.

Assay [8] concerns Rattus norvegicus. Nature of the assay: Antidiabetic activity in Sprague-Dawley Rattus norvegicus (rat) STZ-induced diabetic model assessed as decrease in oral glucose-induced plasma glucose level at 5% administered QD for 12 weeks prior to glucose-challenge measured after 120 min by oral glucose tolerance test relative to control. The class given is functional, organism-based.

In assay [9] the test system is Rattus norvegicus. The assay can be described thus: Antidiabetic activity in Sprague-Dawley Rattus norvegicus (rat) STZ-induced diabetic model assessed as decrease in oral glucose-induced plasma insulin level at 5% administered QD for 6 weeks prior to glucose-challenge measured after 120 min by oral glucose tolerance test relative to control. It is filed as functional, organism-based.

Active and inactive are the calls of the source. The rule behind the calls is not given here.

In the case of `O=C(O[C@@H]1Cc2c(O)cc(O)cc2O[C@@H]1c1cc(O)c(O)c(O)c1)c1cc(O)c(O)c(O)c1` [EPIGALOCATECHIN GALLATE], the outcome with Rattus norvegicus [1], in the assay on Rattus norvegicus [7], in the assay with Rattus norvegicus [8] and in the assay on Rattus norvegicus [9] was Active. In addition, the Activity was 47.9 mg/dL with Rattus norvegicus [2]; 151.1 µM with Rattus norvegicus [3]; 10.2 uU/ml in the assay on Rattus norvegicus [4]; 169.6 mg/dL with Rattus norvegicus [5]; 251.5 g with Rattus norvegicus [6].

With `O=C(O[C@@H]1Cc2c(O)cc(O)cc2O[C@H]1c1cc(O)c(O)c(O)c1)c1cc(O)c(O)c(O)c1` [GALLOCATECHIN GALLATE], the result with Rattus norvegicus [1], in the assay on Rattus norvegicus [7], in the assay on Rattus norvegicus [8] and with Rattus norvegicus [9] was Active. For the same molecule, the Activity stood at 38.3 mg/dL with Rattus norvegicus [2]; 133.5 µM with Rattus norvegicus [3]; 8.5 uU/ml in the assay on Rattus norvegicus [4]; 154.3 mg/dL with Rattus norvegicus [5]; 247.7 g with Rattus norvegicus [6].

For the origin of these results see ChEMBL document CHEMBL3046376, “Epimerization of epigallocatechin gallate to gallocatechin gallate and its anti-diabetic activity” (2013).
